Data from patent publication US8754242B2, “Herbicides” (Syngenta Crop Protection LLC, priority 2007, dated 2014).

Assays:
Assay type in all cases: in vivo
[1] = tested on: Alopecurus myosuroides (ALOMY); assay: Test Example 1 pre-emergence herbicidal activity; settings: Alopecurus myosuroides, 480 h, rate 250 g/ha, evaluated 20 days later, read-out: Pre-emergence activity ALOMY (100=total damage to plant; 0=no damage to plant)
Experimental: (§1) Monocotyledonous and dicotyledonous test plants were sown in standard soil in pots. After cultivation for one day (pre-emergence) or after 10 days cultivation (post-emergence) under controlled conditions in a glasshouse, the plants were sprayed with an aqueous spray solution derived from the formulation of the technical active ingredient in 0.6 ml acetone and 45 ml formulation solution containing 10.6% Emulsogen EL (Registry number 61791-12-6), 42.2% N-methylpyrrolidone, 42.2% dipropylene glycol monomethyl ether (Registry number 34590-94-8) and 0.2% X-77 (Registry number 11097-66-8). The test plants were then grown in a greenhouse under optimum conditions until, 15 days later for post-emergence and 20 days for pre-emergence, the test was evaluated (100=total damage to plant; 0=no damage to plant).
(§2) Alopecurus myosuroides (ALOMY), Avena fatua (AVEFA), Lolium perenne (LOLPE), Setaria faberi (SETFA), Digitaria sanguinalis (DIGSA), Echinochloa crus-galli (ECHCG)

Avena fatua (AVEFA) [2] = assay: Test Example 1 pre-emergence herbicidal activity; settings: Avena fatua, 480 h, rate 250 g/ha, evaluated 20 days later, read-out: Pre-emergence activity AVEFA (100=total damage to plant; 0=no damage to plant)
Experimental: as §1, §2

[3] = tested on: Digitaria sanguinalis (DIGSA); assay: Test Example 1 pre-emergence herbicidal activity; settings: Digitaria sanguinalis, 480 h, rate 250 g/ha, evaluated 20 days later, read-out: Pre-emergence activity DIGSA (100=total damage to plant; 0=no damage to plant)
Experimental: as §1, §2

[4] = tested on: Echinochloa crus-galli (ECHCG); assay: Test Example 1 pre-emergence herbicidal activity; settings: Echinochloa crus-galli, 480 h, rate 250 g/ha, evaluated 20 days later, read-out: Pre-emergence activity ECHCG (100=total damage to plant; 0=no damage to plant)
Experimental: as §1, §2

Lolium perenne (LOLPE) [5] = assay: Test Example 1 pre-emergence herbicidal activity; settings: Lolium perenne, 480 h, rate 250 g/ha, evaluated 20 days later, read-out: Pre-emergence activity LOLPE (100=total damage to plant; 0=no damage to plant)
Experimental: as §1, §2

Setaria faberi (SETFA) [6] = assay: Test Example 1 pre-emergence herbicidal activity; settings: Setaria faberi, 480 h, rate 250 g/ha, evaluated 20 days later, read-out: Pre-emergence activity SETFA (100=total damage to plant; 0=no damage to plant)
Experimental: as §1, §2

[7] = tested on: Alopecurus myosuroides (ALOMY); assay: Test Example 1 post-emergence herbicidal activity; settings: 360 h, rate 125 g/ha, evaluated 15 days later, read-out: Post-emergence activity ALOMY (100=total damage to plant; 0=no damage to plant)
Experimental: as §1, §2

Avena fatua (AVEFA) [8] = assay: Test Example 1 post-emergence herbicidal activity; settings: 360 h, rate 125 g/ha, evaluated 15 days later, read-out: Post-emergence activity AVEFA (100=total damage to plant; 0=no damage to plant)
Experimental: as §1, §2

[9] = tested on: Digitaria sanguinalis (DIGSA); assay: Test Example 1 post-emergence herbicidal activity; settings: 360 h, rate 125 g/ha, evaluated 15 days later, read-out: Post-emergence activity DIGSA (100=total damage to plant; 0=no damage to plant)
Experimental: as §1, §2

[10] = tested on: Echinochloa crus-galli (ECHCG); assay: Test Example 1 post-emergence herbicidal activity; settings: 360 h, rate 125 g/ha, evaluated 15 days later, read-out: Post-emergence activity ECHCG (100=total damage to plant; 0=no damage to plant)
Experimental: as §1, §2

Lolium perenne (LOLPE) [11] = assay: Test Example 1 post-emergence herbicidal activity; settings: 360 h, rate 125 g/ha, evaluated 15 days later, read-out: Post-emergence activity LOLPE (100=total damage to plant; 0=no damage to plant)
Experimental: as §1, §2

Setaria faberi (SETFA) [12] = assay: Test Example 1 post-emergence herbicidal activity; settings: 360 h, rate 125 g/ha, evaluated 15 days later, read-out: Post-emergence activity SETFA (100=total damage to plant; 0=no damage to plant)
Experimental: as §1, §2

SMILES | pest or weed control at 250 g/ha [1] [%] | pest or weed control at 250 g/ha (Avena fatua (AVEFA) [2]) [%] | pest or weed control at 250 g/ha [3] [%] | pest or weed control at 250 g/ha [4] [%] | pest or weed control at 250 g/ha (Lolium perenne (LOLPE) [5]) [%] | pest or weed control at 250 g/ha (Setaria faberi (SETFA) [6]) [%] | pest or weed control at 125 g/ha [7] [%] | pest or weed control at 125 g/ha (Avena fatua (AVEFA) [8]) [%] | pest or weed control at 125 g/ha [9] [%] | pest or weed control at 125 g/ha [10] [%] | pest or weed control at 125 g/ha (Lolium perenne (LOLPE) [11]) [%] | pest or weed control at 125 g/ha (Setaria faberi (SETFA) [12]) [%]
Cc1cc(C)c(C2=C(O)[C@@H]3[C@@H]4O[C@@H](C[C@H]4c4ccc(F)cc4)[C@@H]3C2=O)c(C)c1 (racemic) [Example T70] | 80 | 50 | 90 | 100 | 100 | 90 | 90 | 70 | 70 | 80 | 70 | 70
CCc1cc(C)cc(CC)c1C1=C(O)[C@H]2[C@@H](C1=O)[C@@H]1CC[C@@]2(COC)O1 [Example T17] | 100 | 90 | 100 | 100 | 100 | 100 | 100 | 100 | 100 | 100 | 90 | 100
COc1ccc([C@@H]2C[C@@H]3O[C@H]2[C@H]2C(O)=C(c4c(C)cc(C)cc4C)C(=O)[C@H]23)cc1 (racemic) [Example T57] | 50 | 30 | 60 | 70 | 100 | 80 | 70 | 70 | 70 | 80 | 40 | 70
CCc1nc2ccccc2nc1[C@@H]1C[C@@H]2O[C@H]1[C@H]1C(O)=C(c3c(C)cc(C)cc3C)C(=O)[C@H]12 [Example T194] | 0 | 20 | 70 | 50 | 20 | 50 | 30 | 0 | 70 | 80 | 20 | 0
CC[C@H]1C[C@@H]2O[C@H]1[C@H]1C(O)=C(c3c(C)cc(C)cc3C)C(=O)[C@H]12 [Example T107] | 90 | 90 | 100 | 100 | 100 | 100 | 100 | 90 | 100 | 100 | 90 | 100
CCc1cc(C)cc(CC)c1C1=C(O)[C@@H]2[C@@H]3O[C@@H](C[C@H]3c3cc([N+](=O)[O-])ccc3C)[C@@H]2C1=O (racemic) [Example T184] | 30 | 60 | 70 | 60 | 70 | 90 | 10 | 0 | 20 | 100 | 10 | 50
Cc1cc(C)c(C2=C(O)[C@@H]3[C@@H]4O[C@@H](C[C@H]4c4cccc(C(F)(F)F)c4)[C@@H]3C2=O)c(C)c1 [Example T85] | 40 | 60 | 60 | 70 | 70 | 70 | 90 | 20 | 20 | 100 | 70 | 70
CCc1cc(C)cc(CC)c1C1=C(O)[C@@H]2[C@@H]3O[C@@H](C[C@H]3c3ccc(F)c(Cl)c3)[C@@H]2C1=O [Example T149] | 90 | 60 | 70 | 90 | 80 | 80 | 80 | 90 | 80 | 100 | 70 | 70
CCOC(=O)C1=NOC2C1[C@@H]1O[C@H]2[C@H]2C(O)=C(c3c(CC)cc(C)cc3CC)C(=O)[C@H]21 (mixture of isomers) [Example T16] | 0 | 10 | 0 | 0 | 0 | 10 | 40 | 20 | 0 | 30 | 50 | 0
CCOC(=O)OC1=C(c2c(CC)cc(C)cc2CC)C(=O)[C@@H]2[C@H]1[C@H]1CC[C@@H]2O1 (racemic) [Example P18, carbonic acid (1RS,2SR,6RS,7SR)-5-oxo-4-(2,6-diethyl-4-methylphenyl)-10-oxatricyclo[5.2.1.0^2,6]-dec-3-en-3-yl ester ethyl ester] | 100 | 100 | 100 | 100 | 100 | 100 | 90 | 50 | 70 | 100 | 80 | 70
Cc1cc(C)c(C2=C(OC(=O)OC(C)C)[C@H]3[C@@H](C2=O)[C@@H]2CC[C@H]3O2)c(C)c1 (racemic) [Example P4] | 100 | 100 | 90 | 90 | 100 | 70 | 100 | 90 | 80 | 100 | 100 | 90
CCc1cc(C)cc(CC)c1C1=C(O)[C@@H]2[C@@H]3O[C@@H](C[C@H]3c3ccc(OC(F)(F)F)cc3)[C@@H]2C1=O (racemic) [Example T159] | 50 | 60 | 70 | 70 | 40 | 70 | 90 | 70 | 100 | 100 | 40 | 100
